The values that follow come from patent US8486996B2, “Aroylfuranes and aroylthiophenes” (Basilea Pharmaceutica AG, priority 2006, dated 2013).

Where two headings read alike, the source gives them in different places. Bounds are passed on as bounds.

In one data set the test system is HeLa. Nature of the data set: Colony Forming Units (read-out 6 days), HeLa. Conditions: Homo sapiens, 144 h, colonies containing more than 30 cells, read-out: Colony Forming Units, score based on IC50, HeLa. Format: cell-based, human. Summed up:
(§1)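 Cells seeded at 100-150 per well and left to attach for 48 h before compound addition (0.001 μM-3 μM; DMSO controls). Incubated 5-7 days under culture conditions; colonies of more than 30 cells counted by microscope.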

Data set [1] in a line: MTS proliferation assay (72 h read-out). Conditions: Homo sapiens, MRC5 cells. Format: cell-based. An outline of the steps:
(§2)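 Tumour cells (1.5×10^3–10^4 per well) were seeded 24 h before compound addition, then exposed to 0.001–10 μM final compound for 72 h under culture conditions. MTS reagent was added for a further 3 h, absorbance was read at 492 nm, and results were binned into scores A–D.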
In general terms: Formazan colour is commonly taken as a measure of viable cells.

The test system of data set [2] is tumor cells. Nature of the data set: MTS proliferation assay (72 h read-out). The class given is cell-based. Summed up:
as §2

Data set [3] is described as follows: Hoechst 33342 nuclear staining (48 h read-out). The class given is cell-based. Summed up:
(§3)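 Adherent cells pre-spread 24 h before dosing, suspension cells dosed at seeding; compounds at 0.001 μM-10 μM final, 48 h at culture conditions. Hoechst 33342 (2-5 μg/ml) added for 30 min, then fluorescence microscopy scoring of apoptotic nuclear fraction and apoptosis-specific morphology, reported as scores A-D.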

The test system of data set [4] is tumor cells. Nature of the data set: Hoechst 33342 nuclear staining (48 h read-out). The class given is cell-based. Summed up:
as §3

The subject of a further data set is H460. Nature of the data set: Colony Forming Units (read-out 6 days), H460. Conditions: Homo sapiens, NCI-H460, 144 h, colonies containing more than 30 cells, read-out: Colony Forming Units, score based on IC50, H460. Format: cell-based, human. Summed up:
as §1

Data set [5] in a line: Mitochondrial membrane potential, JC-1 (read-out 48 h). Format: cell-based. Conditions: PBL, JC-1, 48 h. Summed up: (§4)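 Tumor cells were treated with test compounds (adherent cells after 24 h of attachment, suspension cells immediately), medium holding up to 5% DMSO. After 48 h, JC-1 (2-5 μg/ml in added medium) was applied for 30 min. Fluorescence microscopy (FITC/TRITC filters) scored the fraction of cells with dissipated mitochondrial membrane potential as categories A-D.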

Data set [6] relates to tumor cells. Described as above. Format: cell-based. Conditions: JC-1, 48 h. An outline of the steps: as §4
Where [7] appears, read: Homo sapiens, HT-1080, HT1080 cells, read-out: MTS proliferation assay IC50, HT1080.
Setting [8] is: Homo sapiens, HeLa cells, read-out: MTS proliferation assay IC50, HeLa.
The mark [9] stands for this setting: Homo sapiens, Jurkat cells, read-out: MTS proliferation assay IC50, Jurkat.
[10] abbreviates: Jily cells, read-out: MTS proliferation assay IC50, Jily.
The mark [11] stands for this setting: Homo sapiens, MRC5 cells, read-out: Hoechst 33342 nuclear staining EC50, MRC5.
[12] abbreviates: PBL, read-out: Hoechst 33342 nuclear staining EC50, PBL.
Setting [13] is: Homo sapiens, HeLa cells, read-out: Hoechst 33342 nuclear staining EC50, HeLa.
Where [14] appears, read: Homo sapiens, Jurkat cells, read-out: Hoechst 33342 nuclear staining EC50, Jurkat.
Setting [15] is: Jily cells, read-out: Hoechst 33342 nuclear staining EC50, Jily.
Where [16] appears, read: Homo sapiens, HeLa cells, read-out: Mitochondrial membrane potential (read-out 48 h) HeLa.
Setting [17] is: Homo sapiens, Jurkat cells, read-out: Mitochondrial membrane potential (read-out 48 h) Jurkat.
[18] abbreviates: Homo sapiens, MCF7 cells, read-out: Mitochondrial membrane potential (read-out 48 h) MCF7.
Setting [19] is: Jily cells, read-out: Mitochondrial membrane potential (read-out 48 h) Jily.

One may read the melting point as the temperature, or range, at which the solid turns liquid. The molecule `CCOc1ccc(F)cc1C(=O)c1oc2ccc(Cl)cc2c1N` [Example 18] displayed a melting point of 132 to 134 °C. Moreover, in the data set on HeLa, the IC50 is < 10 nM. Moreover, the IC50 in data set [1] is < 10 nM. In the data set with tumor cells [2] (setting [7]), the IC50 is < 10 nM. The IC50 in the data set with tumor cells [2] (setting [8]) was < 10 nM. The IC50 in the data set with tumor cells [2] (setting [9]) was < 10 nM. Further, the IC50 in the data set with tumor cells [2] (setting [10]) is < 10 nM. The EC50 in [3] (setting [11]) is < 10 nM. Moreover, the EC50 in data set [3] (setting [12]) was > 1000 nM. Moreover, the EC50 in the data set on tumor cells [4] (setting [13]) is < 10 nM. In addition, in the data set with tumor cells [4] (setting [14]), the EC50 is < 10 nM. Besides, in the data set with tumor cells [4] (setting [15]), the EC50 was < 10 nM. In addition, in the data set on H460, the IC50 was < 10 nM. In addition, the EC50 in data set [5] is > 1000 nM. In addition, the EC50 in the data set with tumor cells [6] (setting [16]) was < 10 nM. The EC50 with tumor cells [6] (setting [17]) is < 10 nM. For the same molecule, in the data set on tumor cells [6] (setting [18]), the EC50 is < 10 nM. Also, the EC50 in the data set on tumor cells [6] (setting [19]) was < 10 nM.
`CCOc1ccc(F)cc1C(=O)c1oc2nc(C)ccc2c1N` [Example 29] had a melting point of 152 to 156 °C. In the data set with HeLa, the IC50 was in the range of 10 to 100 nM. Further, the IC50 in data set [1] lay within 10 to 100 nM. The IC50 with tumor cells [2] (setting [7]) was < 10 nM. Besides, in the data set on tumor cells [2] (setting [8]), the IC50 was 10 to 100 nM. Moreover, the IC50 with tumor cells [2] (setting [9]) was < 10 nM. Besides, the IC50 in the data set with tumor cells [2] (setting [10]) is < 10 nM. The EC50 in [3] (setting [11]) fell in the range of 100 to 1000 nM. In data set [3] (setting [12]), the EC50 was > 1000 nM. In the data set on tumor cells [4] (setting [13]), the EC50 lay in the range of 10 to 100 nM. Further, the EC50 with tumor cells [4] (setting [14]) lay in the range of 10 to 100 nM. Besides, the EC50 in the data set on tumor cells [4] (setting [15]) is 10 to 100 nM. In the data set with H460, the IC50 lay in the range of 10 to 100 nM. For the same molecule, the EC50 in [5] was > 1000 nM. Moreover, the EC50 in the data set with tumor cells [6] (setting [16]) was in the range of 10 to 100 nM. The EC50 in the data set with tumor cells [6] (setting [17]) fell in the range of 10 to 100 nM. For the same molecule, the EC50 in the data set with tumor cells [6] (setting [18]) fell in the range of 10 to 100 nM. In addition, in the data set on tumor cells [6] (setting [19]), the EC50 was in the range of 10 to 100 nM.
